The structures appear in SMILES notation.

The record followed here is patent US7786299B2, “Methods for treating diseases or conditions using dihydropteridinone compounds” (Boehringer Ingelheim Pharma GmbH & Co. KG, priority 2003, dated 2010).

One test has as its system HeLaS3 cells. Nature of the test: Measurement of cytotoxicity on cultivated human tumour cells (AlamarBlue). The test is classed as cell-based. Conditions: HeLa in Table 1; unit inferred. Here is the method: The activity of the compounds according to the invention was determined in the cytotoxicity test on cultivated human tumour cells and/or in a FACS analysis, for example on HeLaS3 cells.
Measurement of Cytotoxicity on Cultivated Human Tumour Cells
To measure the cytotoxicity on cultivated human tumour cells, cells of the cervical cancer tumour cell line HeLaS3 (obtained from American Type Culture Collection (ATCC)) in Ham's F12 Medium (Life Technologies) and 10% foetal calf serum (Life Technologies) were cultivated and harvested in the logarithmic growth phase. Then the HeLaS3 cells were placed in 96-well plates (Costar) at a density of 1000 cells per well and incubated overnight in an incubator (at 37° C. and 5% CO2), while on each plate 6 wells were filled only with medium (3 wells as a control of the medium, 3 wells for incubation with reduced AlamarBlue). The active substances were added to the cells in various concentrations (dissolved in DMSO; final concentration: 1%) (in each case as a triple measurement). After 72 hours' incubation, 20 μl of AlamarBlue (AccuMed International) were added to each well, and the cells were incubated for a further 7 hours. As a control, 20 μl of reduced Alamar Blue (AlamarBlue reagent which had been autoclaved for 30 min) were added to 3 wells. After 7 h incubation the colour change of the AlamarBlue reagent in the individual wells was determined in a Perkin Elmer fluorescence spectrophotometer (excitation 530 nm, emission 590 nm, slits 15, integrate time 0.1). The amount of AlamarBlue reagent reacted represents the metabolic activity of the cells. The relative cell activity was calculated as a percentage of the control (HeLa S3 cells without inhibitor) and the active substance concentration which inhibits the cell activity by 50% (IC^50) was obtained. The values were calculated from the average of three individual measurements, correcting for the control value (medium control).

The test system of another test is H460-VINC. Nature of the test: Cytotoxicity on H460-VINC cells (Table 1; method not given). The class given is cell-based. As to conditions: H460-VINC of Table 1; unit inferred.

`CCN1CCC(NC(=O)c2ccc(Nc3ncc4c(n3)N(C(C)C)C(C)C(=O)N4C)c(OC)c2)CC1` (centres unmarked) [Example 20]: the concentration for half-maximal inhibition (IC50) is 0.083 µM with HeLaS3 cells and at least 3 µM with H460-VINC.
The like results for `CCC1C(=O)N(C)c2cnc(Nc3ccc(C(=O)NC4CC(C)(C)N(C)C(C)(C)C4)cc3OC)nc2N1C1CCCC1` (centres unmarked) [Example 21] were, in that order, 0.009 µM and 0.488 µM.
The like results for `CCC1C(=O)N(C)c2cnc(Nc3ccc(C(=O)NC4CCN(CC)CC4)cc3OC)nc2N1C1CCCC1` (centres unmarked) [Example 22] were, in that order, 0.008 µM and 0.347 µM.
For `CCC1C(=O)N(C)c2cnc(Nc3ccc(C(=O)NC4CCC(N(C)C)CC4)cc3OC)nc2N1C1CCCC1` (centres unmarked) [Example 23] the same measures were 0.013 µM and 0.679 µM.
On to `COc1cc(C(=O)NC2CCC(N3CCOCC3)CC2)ccc1Nc1ncc2c(n1)N(C1CCCC1)C(C)C(=O)N2C` (centres unmarked) [Example 24], for which the IC50 came out at 0.017 µM in the test with HeLaS3 cells and 0.277 µM with H460-VINC.
For `COc1cc(C(=O)NC2CCC(N3CCOCC3)CC2)ccc1Nc1ncc2c(n1)N(C(C)C)C(C)C(=O)N2C` (centres unmarked) [Example 26] the same measures were 0.059 µM and 0.424 µM.
For `CCC1C(=O)N(C)c2cnc(Nc3ccc(C(=O)NC4CCC(N5CCOCC5)CC4)cc3OC)nc2N1C(C)C` (centres unmarked) [Example 27] the same measures were 0.014 µM and 0.164 µM.
Regarding `CCC1C(=O)N(C)c2cnc(Nc3ccc(C(=O)NC4CCC(N5CCOCC5)CC4)cc3OC)nc2N1C(C)C` (centres unmarked) [Example 28], the IC50 in the test on HeLaS3 cells amounted to 0.018 µM; in the test on H460-VINC it was 0.16 µM.
Take `COc1cc(C(=O)NC2CC(C)(C)N(C)C(C)(C)C2)ccc1Nc1ncc2c(n1)N(C1CCCC1)[C@H](C)C(=O)N2C` [Example 30]: the figures for the IC50 in the test with HeLaS3 cells and with H460-VINC were 0.012 µM and 0.574 µM, respectively.
For `C[C@@H]1C(=O)N(C)c2cnc(Nc3ccc(C(=O)NC4CC(C)(C)N(C)C(C)(C)C4)cc3)nc2N1C1CCCC1` [Example 31] the same measures were 0.023 µM and at least 3 µM.
The like results for `COc1cc(C(=O)NC2CC(C)(C)N(C)C(C)(C)C2)ccc1Nc1ncc2c(n1)N(C(C)C)[C@H](C)C(=O)N2C` [Example 32] were, in that order, 0.049 µM and at least 3 µM.
The like results for `CC(C)N1c2nc(Nc3ccc(C(=O)NC4CC(C)(C)N(C)C(C)(C)C4)cc3)ncc2N(C)C(=O)[C@H]1C` [Example 33] were, in that order, 0.097 µM and at least 3 µM.
`CCN1CC[C@@H](NC(=O)c2ccc(Nc3ncc4c(n3)N(CCC(C)C)[C@H](C)C(=O)N4C)c(OC)c2)C1` [Example 37]: the IC50 with HeLaS3 cells amounted to 0.072 µM; with H460-VINC, 0.762 µM.
The like results for `COc1cc(C(=O)N[C@H]2CC[C@H](N3CCOCC3)CC2)ccc1Nc1ncc2c(n1)N(CCC(C)C)[C@H](C)C(=O)N2C` [Example 38] were, in that order, 0.087 µM and 0.278 µM.
With `COc1cc(C(=O)N[C@H]2CC[C@H](N3CCOCC3)CC2)ccc1Nc1ncc2c(n1)N(C1CCCC1)[C@H](C)C(=O)N2C` [Example 40], the IC50 with HeLaS3 cells is 0.038 µM; in the test on H460-VINC, 0.187 µM.
The like results for `COc1cc(C(=O)NC2CCN(C)CC2)ccc1Nc1ncc2c(n1)N(c1ccccc1)[C@H](C)C(=O)N2C` [Example 41] were, in that order, 0.083 µM and at least 3 µM.
Regarding `COc1cc(C(=O)NC2CC3CCC(C2)N3C)ccc1Nc1ncc2c(n1)N(CCC(C)C)C(C)(C)C(=O)N2C` (centres unmarked) [Example 43], the IC50 in the test with HeLaS3 cells was 0.094 µM; in the test on H460-VINC, at least 3 µM.
Regarding `CCC1C(=O)N(C)c2cnc(Nc3ccc(C(=O)NC4CCN(C)CC4)cc3)nc2N1C1CCCC1` (centres unmarked) [Example 44], the 50% inhibitory concentration (IC50) amounted to 0.009 µM in the test with HeLaS3 cells and 0.204 µM with H460-VINC.
The like results for `CCC1C(=O)N(C)c2cnc(Nc3ccc(C(=O)NC4CC5CCC(C4)N5C)cc3OC)nc2N1C1CCCC1` (centres unmarked) [Example 45] were, in that order, 0.022 µM and 0.792 µM.
Take `CCC1C(=O)N(C)c2cnc(Nc3ccc(C(=O)NC4CCN(C)CC4)cc3OC)nc2N1C1CCCC1` (centres unmarked) [Example 46]: the IC50 turned out to be 0.012 µM in the test with HeLaS3 cells and 0.208 µM in the test with H460-VINC.
As for `CC1C(=O)N(C)c2cnc(Nc3ccc(C(=O)NC4CCN(C)CC4)cc3)nc2N1c1ccccc1` (centres unmarked) [Example 48], the IC50 with HeLaS3 cells is 0.083 µM; in the test with H460-VINC it was at least 3 µM.
Regarding `COc1cc(C(=O)NC(C)(C)CN2CCCC2)ccc1Nc1ncc2c(n1)N(C1CCCC1)C(C)C(=O)N2C` (centres unmarked) [Example 49], the IC50 worked out at 0.059 µM in the test with HeLaS3 cells and 0.529 µM in the test with H460-VINC.
On to `COc1cc(C(=O)NC(C)(C)CN2CCCC2)ccc1Nc1ncc2c(n1)N(CC(C)(C)C)C(C)C(=O)N2C` (centres unmarked) [Example 50], for which the IC50 was 0.081 µM with HeLaS3 cells and 0.436 µM in the test with H460-VINC.
For `COc1cc(C(=O)NCC(C)(C)CN(C)C)ccc1Nc1ncc2c(n1)N(C1CCCC1)C(C1CC1)C(=O)N2C` (centres unmarked) [Example 51] the same measures were 0.08 µM and 0.15 µM.
The like results for `COc1cc(C(=O)NCC(C)(C)CN(C)C)ccc1Nc1ncc2c(n1)N(CC(C)(C)C)C(C)C(=O)N2C` (centres unmarked) [Example 52] were, in that order, 0.079 µM and 0.153 µM.
For `COc1cc(C(=O)NCC(C)(C)CN(C)C)ccc1Nc1ncc2c(n1)N(CCC(C)C)C(C)(C)C(=O)N2C` [Example 53], the results for the 50% inhibitory concentration (IC50) in the test with HeLaS3 cells and in the test with H460-VINC were 0.076 µM and 0.245 µM, respectively.
For `CCC1C(=O)N(C)c2cnc(Nc3ccc(C(=O)NC(C)(C)CN4CCCC4)cc3OC)nc2N1C(C)C` (centres unmarked) [Example 54] the same measures were 0.031 µM and 0.226 µM.
As for `CCC1C(=O)N(C)c2cnc(Nc3ccc(C(=O)NC(C)(C)CN4CCCC4)cc3OC)nc2N1C1CCCC1` (centres unmarked) [Example 55], the IC50 in the test on HeLaS3 cells was 0.013 µM; with H460-VINC, 0.086 µM.
Regarding `COc1cc(C(=O)NC(C)(C)CN2CCCC2)ccc1Nc1ncc2c(n1)N(C(C)C)C(C)C(=O)N2C` (centres unmarked) [Example 56], the concentration for half-maximal inhibition (IC50) with HeLaS3 cells was 0.064 µM; with H460-VINC, 0.324 µM.
For `CCC1C(=O)N(C)c2cnc(Nc3ccc(C(=O)NCC(C)(C)CN(C)C)cc3OC)nc2N1C(C)C` (centres unmarked) [Example 57] the same measures were 0.038 µM and 0.067 µM.
Regarding `CCC1C(=O)N(C)c2cnc(Nc3ccc(C(=O)NCC(C)(C)CN(C)C)cc3OC)nc2N1C1CCCC1` (centres unmarked) [Example 58], the IC50 in the test on HeLaS3 cells is 0.01 µM; in the test on H460-VINC, 0.023 µM.
For `COc1cc(C(=O)NCC(C)(C)CN(C)C)ccc1Nc1ncc2c(n1)N(C1CCCC1)C(C)C(=O)N2C` (centres unmarked) [Example 60] the same measures were 0.041 µM and 0.189 µM.
For `COc1cc(C(=O)NC2CCN(C)CC2)ccc1Nc1ncc2c(n1)N(CC(C)C)C(C)(C)C(=O)N2C` [Example 61] the same measures were 0.065 µM and 1.04 µM.
The like results for `CCN(CC)CCNC(=O)c1ccc(Nc2ncc3c(n2)N(C2CCCC2)C(C)C(=O)N3C)c(OC)c1` (centres unmarked) [Example 62] were, in that order, 0.058 µM and 0.538 µM.
On to `COc1cc(C(=O)NCCCN2CCOCC2)ccc1Nc1ncc2c(n1)N(C1CCCC1)C(C)C(=O)N2C` (centres unmarked) [Example 63], for which the 50% inhibitory concentration (IC50) in the test with HeLaS3 cells was 0.081 µM; in the test with H460-VINC, 0.206 µM.
For `COc1cc(C(=O)NCCCN2CCCCC2)ccc1Nc1ncc2c(n1)N(C1CCCC1)C(C)C(=O)N2C` (centres unmarked) [Example 64], the IC50 with HeLaS3 cells stood at 0.064 µM; in the test with H460-VINC, 0.894 µM.
On to `COc1cc(C(=O)NCCN2CCOCC2)ccc1Nc1ncc2c(n1)N(C1CCCC1)C(C)C(=O)N2C` (centres unmarked) [Example 65], for which the IC50 worked out at 0.052 µM in the test on HeLaS3 cells and 0.216 µM with H460-VINC.
For `COc1cc(C(=O)NCCN2CCCCC2)ccc1Nc1ncc2c(n1)N(C1CCCC1)C(C)C(=O)N2C` (centres unmarked) [Example 66] the same measures were 0.064 µM and 0.25 µM.
Regarding `COc1cc(C(=O)NCCN(C)C)ccc1Nc1ncc2c(n1)N(C1CCCC1)C(C)C(=O)N2C` (centres unmarked) [Example 67], the IC50 in the test with HeLaS3 cells was 0.052 µM; in the test with H460-VINC it was 0.566 µM.
As to `CC1C(=O)N(C)c2cnc(Nc3ccc(C(=O)NC4CC5CCC(C4)N5C)cc3)nc2N1C1CCCC1` (centres unmarked) [Example 68], the IC50 in the test with HeLaS3 cells turned out to be 0.092 µM; in the test with H460-VINC, 1.24 µM.
For the compound `CC1C(=O)N(C)c2cnc(Nc3ccc(C(=O)NCCCN4CCOCC4)cc3)nc2N1C1CCCC1` (centres unmarked) [Example 69], the concentration for half-maximal inhibition (IC50) in the test on HeLaS3 cells came out at 0.055 µM; in the test on H460-VINC it was 0.633 µM.
For `CC[C@@H]1C(=O)N(C)c2cnc(Nc3ccc(C(=O)NCCN4CCOCC4)cc3OC)nc2N1C(C)C` [Example 71] the same measures were 0.035 µM and 0.227 µM.
For `COc1cc(C(=O)NCCCN(C)C)ccc1Nc1ncc2c(n1)N(C1CCCC1)[C@H](C)C(=O)N2C` [Example 75] the same measures were 0.046 µM and 0.557 µM.
Regarding `COc1cc(C(=O)NC2CCN(C)CC2)ccc1Nc1ncc2c(n1)N(C1CCCC1)[C@H](C)C(=O)N2C` [Example 80], the IC50 came to 0.038 µM in the test on HeLaS3 cells and 0.286 µM in the test on H460-VINC.
The like results for `Cc1cc(C(=O)NC2CCN(C)CC2)ccc1Nc1ncc2c(n1)N(C1CCCC1)[C@H](C)C(=O)N2C` [Example 83] were, in that order, 0.069 µM and 0.263 µM.
The like results for `C[C@@H]1C(=O)N(C)c2cnc(Nc3ccc(C(=O)NC4CCN(C)CC4)cc3)nc2N1C1CCCCC1` [Example 85] were, in that order, 0.025 µM and 0.754 µM.
